Some results are limits rather than exact numbers.

Drawing on ChEMBL document CHEMBL3400000, “The discovery of potent agonists for GPR88, an orphan GPCR, for the potential treatment of CNS disorders” (Bioorg Med Chem Lett, 2015), this text covers EC50 for 51 compounds.

The target of this test is G protein-coupled receptor 88 (Homo sapiens, UniProt Q9GZN0). The test can be described thus: Agonist activity at GPR88 (unknown origin) transfected into cells assessed as cAMP accumulation by HTRF assay. It is filed as functional.
Chain of G protein-coupled receptor 88 (Q9GZN0 whole entry): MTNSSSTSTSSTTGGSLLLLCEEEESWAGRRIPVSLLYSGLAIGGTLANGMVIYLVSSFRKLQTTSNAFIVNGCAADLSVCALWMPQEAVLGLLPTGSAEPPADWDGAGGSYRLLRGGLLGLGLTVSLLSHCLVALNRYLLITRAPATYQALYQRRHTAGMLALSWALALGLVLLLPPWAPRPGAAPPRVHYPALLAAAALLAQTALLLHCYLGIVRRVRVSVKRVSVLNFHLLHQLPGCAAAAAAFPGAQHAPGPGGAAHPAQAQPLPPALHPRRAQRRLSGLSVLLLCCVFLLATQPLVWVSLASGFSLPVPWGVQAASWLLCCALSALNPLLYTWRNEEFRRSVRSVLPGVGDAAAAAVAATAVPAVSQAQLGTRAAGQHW
In the case of `CC[C@H](C)[C@H](N)CN(C(=O)[C@@H]1C[C@H]1c1nc(C)c(C)s1)c1ccc(-c2ccccc2)cc1`, the EC50 – broadly, the concentration at which the effect is half-maximal – was determined as 3600 nM.

In the case of `CC[C@H](C)[C@H](N)CN(C(=O)[C@@H]1C[C@H]1c1csc(C)n1)c1ccc(-c2ccccc2)cc1`, the EC50 stood at 1500 nM.

Regarding `CC(C)C[C@H](N)CN(C(=O)[C@@H]1C[C@H]1c1ccccc1)c1cccc(-c2ccccc2)c1`, the EC50 worked out at 23000 nM.

In the case of `CC(C)C[C@H](N)CN(C(=O)[C@@H]1C[C@H]1c1ccccc1)c1ccccc1-c1ccccc1`, the EC50 is 6200 nM.

As to `CC(C)C[C@H](N)CN(C(=O)[C@@H]1C[C@H]1c1ccccc1)c1ccc(-c2cccnc2)cc1`, the concentration giving a half-maximal response (EC50) stood at 10000 nM.

Turning to `CC(C)C[C@H](N)CN(C(=O)[C@@H]1C[C@H]1c1ccccc1)c1ccc(-c2ccncc2)cc1`, the concentration for a half-maximal effect (EC50) came to 13000 nM.

For the compound `CC(C)C[C@H](N)CN(C(=O)[C@@H]1C[C@H]1c1ccccc1)c1ccc(-c2ccsc2)cc1`, the EC50 is 1200 nM.

Take `CC(C)C[C@H](N)CN(C(=O)[C@@H]1C[C@H]1c1ccccc1)c1ccc(-c2cccs2)cc1`: the EC50 amounted to 1500 nM.

`CC(C)C[C@H](N)CN(C(=O)[C@@H]1C[C@H]1c1ccccc1)c1ccc(-c2ccoc2)cc1`: the EC50 stood at 2000 nM.

As for `CC(C)C[C@H](N)CN(C(=O)[C@@H]1C[C@H]1c1ccccc1)c1ccc(C2=CCCC2)cc1`, the concentration giving a half-maximal response (EC50) was 1200 nM.

As for `CC(C)C[C@H](N)CN(C(=O)[C@@H]1C[C@H]1c1ccccc1)c1ccc(C2=CCCCCC2)cc1`, the EC50 came out at 2100 nM.

As for `CC(C)C[C@H](N)CN(C(=O)[C@@H]1C[C@H]1c1ccccc1)c1ccc(C2=CCCCC2)cc1`, the EC50 was found to be 1200 nM.

Consider `Cc1ccc(-c2ccc(N(C[C@@H](N)CC(C)C)C(=O)[C@@H]3C[C@H]3c3ccccc3)cc2)cc1`, for which the EC50 was 360 nM.

In the case of `Cc1cccc(-c2ccc(N(C[C@@H](N)CC(C)C)C(=O)[C@@H]3C[C@H]3c3ccccc3)cc2)c1`, the EC50 was determined as 1200 nM.

Take `Cc1ccccc1-c1ccc(N(C[C@@H](N)CC(C)C)C(=O)[C@@H]2C[C@H]2c2ccccc2)cc1`: the EC50 was 3400 nM.

As to `COc1ccc(-c2ccc(N(C[C@@H](N)CC(C)C)C(=O)[C@@H]3C[C@H]3c3ccccc3)cc2)cc1`, the EC50 stood at 330 nM.

As for `COc1cccc(-c2ccc(N(C[C@@H](N)CC(C)C)C(=O)[C@@H]3C[C@H]3c3ccccc3)cc2)c1`, the 50% effective concentration (EC50) came to 1100 nM.

On to `COc1ccccc1-c1ccc(N(C[C@@H](N)CC(C)C)C(=O)[C@@H]2C[C@H]2c2ccccc2)cc1`, for which the EC50 is 3200 nM.

For the compound `CC(C)C[C@H](N)CN(C(=O)[C@@H]1C[C@H]1c1ccccc1)c1ccc(-c2ccc(F)cc2)cc1`, the EC50 came out at 900 nM.

Turning to `CC(C)C[C@H](N)CN(C(=O)[C@@H]1C[C@H]1c1ccccc1)c1ccc(-c2cccc(F)c2)cc1`, the EC50 was found to be 2100 nM.

As for `CC(C)C[C@H](N)CN(C(=O)[C@@H]1C[C@H]1c1ccccc1)c1ccc(-c2ccccc2F)cc1`, the EC50 worked out at 1600 nM.

`CC(C)C[C@H](N)CN(C(=O)[C@@H]1C[C@H]1c1ccccc1)c1ccc(-c2ccc(C#N)cc2)cc1`: the EC50 was determined as 670 nM.

For `CC(C)C[C@H](N)CN(C(=O)[C@@H]1C[C@H]1c1ccccc1)c1ccc(-c2cccc(C#N)c2)cc1`, the EC50 was 4500 nM.

For the compound `CC(C)C[C@H](N)CN(C(=O)[C@@H]1C[C@H]1c1ccccc1)c1ccc(-c2ccc(Cl)cc2)cc1`, the EC50 worked out at 640 nM.

As to `CC(C)C[C@H](N)CN(C(=O)[C@@H]1C[C@H]1c1ccccc1)c1ccc(-c2ccccc2Cl)cc1`, the EC50 stood at 3800 nM.

As to `CC[C@H](C)[C@H](N)CN(C(=O)[C@@H]1C[C@H]1c1ccccc1)c1ccc(-c2ccccc2)cc1`, the EC50 is 230 nM.

On to `CCc1ccc(-c2ccc(N(C[C@@H](N)[C@@H](C)CC)C(=O)[C@@H]3C[C@H]3c3ccccc3)cc2)cc1`, for which the EC50 was 44 nM.

In the case of `CCCc1ccc(-c2ccc(N(C[C@@H](N)[C@@H](C)CC)C(=O)[C@@H]3C[C@H]3c3ccccc3)cc2)cc1`, the EC50 came to 61 nM.

For `CC[C@H](C)[C@H](N)CN(C(=O)[C@@H]1C[C@H]1c1ccccc1)c1ccc(-c2ccc(C(C)(C)C)cc2)cc1`, the EC50 is 750 nM.

Regarding `CC[C@H](C)[C@H](N)CN(C(=O)[C@@H]1C[C@H]1c1ccccc1)c1ccc(-c2ccc(C(F)(F)F)cc2)cc1`, the EC50 came to 340 nM.

For `CC[C@H](C)[C@H](N)CN(C(=O)[C@@H]1C[C@H]1c1ccccc1)c1ccc(-c2ccc(OC(C)C)cc2)cc1`, the EC50 is 72 nM.

Regarding `CCOc1ccc(-c2ccc(N(C[C@@H](N)[C@@H](C)CC)C(=O)[C@@H]3C[C@H]3c3ccccc3)cc2)cc1`, the EC50 is 90 nM.

As to `CC[C@H](C)[C@H](N)CN(C(=O)[C@@H]1C[C@H]1c1ccccc1)c1ccc(-c2ccc(OC)cc2)cc1`, the EC50 is 120 nM.

On to `CC[C@H](C)[C@H](N)CN(C(=O)[C@@H]1C[C@H]1c1ccccc1)c1ccc(-c2ccc(Oc3ccccc3)cc2)cc1`, for which the EC50 worked out at 94 nM.

On to `CC[C@H](C)[C@H](N)CN(C(=O)[C@@H]1C[C@H]1c1ccccc1)c1ccc(-c2ccc(OC(F)(F)F)cc2)cc1`, for which the EC50 was 170 nM.

For `CC[C@H](C)[C@H](N)CN(C(=O)[C@@H]1C[C@H]1c1ccccc1)c1ccc(-c2ccc(COC)cc2)cc1`, the EC50 stood at 35 nM.

On to `CC[C@H](C)[C@H](N)CN(C(=O)[C@@H]1C[C@H]1c1ccccc1)c1ccc(-c2ccc(COC(C)(C)C)cc2)cc1`, for which the EC50 worked out at 280 nM.

As for `CC[C@H](C)[C@H](N)CN(C(=O)[C@@H]1C[C@H]1c1ccccc1)c1ccc(-c2ccc(CO)cc2)cc1`, the EC50 was found to be 1100 nM.

For the compound `CC[C@H](C)[C@H](N)CN(C(=O)[C@@H]1C[C@H]1c1ccccc1)c1ccc(-c2ccc(CC(=O)OC)cc2)cc1`, the EC50 came out at 66 nM.

Consider `CC[C@H](C)[C@H](N)CN(C(=O)[C@@H]1C[C@H]1c1ccccc1)c1ccc(-c2ccc(CCC(=O)OC)cc2)cc1`, for which the EC50 is 110 nM.

`CCOC(=O)c1ccc(-c2ccc(N(C[C@@H](N)[C@@H](C)CC)C(=O)[C@@H]3C[C@H]3c3ccccc3)cc2)cc1`: the EC50 is 260 nM.

With `CC[C@H](C)[C@H](N)CN(C(=O)[C@@H]1C[C@H]1c1ccccc1)c1ccc(-c2ccc(C(=O)N(C)C)cc2)cc1`, the EC50 was found to be 980 nM.

On to `CC[C@H](C)[C@H](N)CN(C(=O)[C@@H]1C[C@H]1c1ccccc1)c1ccc(-c2ccc(N)cc2)cc1`, for which the EC50 came to 320 nM.

With `CC[C@H](C)[C@H](N)CN(C(=O)[C@@H]1C[C@H]1c1ccccc1)c1ccc(-c2ccc(NS(C)(=O)=O)cc2)cc1`, the EC50 stood at 1200 nM.

On to `CC[C@H](C)[C@H](N)CN(C(=O)[C@@H]1C[C@H]1c1ccccc1)c1ccc(-c2ccc(NC(C)=O)cc2)cc1`, for which the EC50 was found to be 5500 nM.

As to `CC[C@H](C)[C@H](N)CN(C(=O)[C@@H]1C[C@H]1c1ccccc1)c1ccc(-c2ccc(CN(C)C)cc2)cc1`, the EC50 is 460 nM.

Turning to `CC[C@H](C)[C@H](N)CN(C(=O)[C@@H]1C[C@H]1c1ccccc1)c1ccc(-c2ccc(CNC)cc2)cc1`, the EC50 is 6400 nM.

On to `CC[C@H](C)[C@H](N)CN(C(=O)[C@@H]1C[C@H]1c1ccccc1)c1ccc(-c2ccc(CN)cc2)cc1`, for which the concentration giving a half-maximal response (EC50) is above 30000 nM.

As for `CC[C@H](C)[C@H](N)CN(C(=O)[C@H]1C[C@@H]1c1ccccn1)c1ccc(-c2ccc(COC)cc2)cc1`, the EC50 was found to be 1200 nM.

Turning to `CC[C@H](C)[C@H](N)CN(C(=O)[C@@H]1C[C@H]1c1ccccn1)c1ccc(-c2ccc(COC)cc2)cc1`, the EC50 was determined as 15 nM.

In the case of `CC[C@H](C)[C@H](N)CN(C(=O)[C@@H]1C[C@H]1c1ccccn1)c1ccc(-c2ccc(OC(C)C)cc2)cc1`, the EC50 was 3.5 nM.
